Source: EP1043020A1, “MEDICINAL COMPOSITION FOR PERCUTANEOUS ADMINISTRATION” (priority 1997, dated 1999)
Like-named read-outs stand apart in the source and are kept apart here.

Tests used:
[1] = in vitro skin permeability test in pig; assay type: in vitro ADME, Yucatan miniature pig
[2] = not given; remark: listed apart in the source

CC(=N)N1CC[C@H](Oc2ccc([C@H](Cc3ccc4ccc(C(=N)N)cc4c3)C(=O)O)cc2)C1.Cl.O.O.O.O.O [compound A, (2S)-2-[4-[((3S)-1-acetimidoyl-3-pyrrolidinyl)oxy]phenyl]-3-(7-amidino-2-naphthyl)propionic acid hydrochloride pentahydrate]
Percutaneous absorption enhancing effect: 1.0
Q24 (cumulative skin permeation amount of compound A per unit area for 24 hours): 709.05 ± 76.18 µg/cm^2
Percutaneous absorption enhancing effect [1]: 1.0
Q48 (cumulative skin permeation amount of compound A per unit area for 48 hours) ([2]; human skin (2): horny, epidermal, dermal and some fat layers, approximately 1 mm, freeze-stored, thawed, fat removed, donor: compound A 50 mg/mL with enhancer, mean ± S.E., n=2 or 3): (2) 3 ± 1 µg/cm^2
Percutaneous absorption enhancing effect ([2]; human skin (2), ratio of Q48 of compound A with enhancer to that without enhancer (3 ± 1)): 1.0
